In ChEMBL document CHEMBL5291721, “A preclinical secondary pharmacology resource illuminates target-adverse drug reaction associations of marketed drugs” (Nat Commun, 2023) one finds AC50 data, which are given here for 19 compounds.

Assay [1] concerns the target T1, Alpha-1A adrenergic receptor (Homo sapiens, UniProt P35348).
T1 sequence (P35348 whole entry): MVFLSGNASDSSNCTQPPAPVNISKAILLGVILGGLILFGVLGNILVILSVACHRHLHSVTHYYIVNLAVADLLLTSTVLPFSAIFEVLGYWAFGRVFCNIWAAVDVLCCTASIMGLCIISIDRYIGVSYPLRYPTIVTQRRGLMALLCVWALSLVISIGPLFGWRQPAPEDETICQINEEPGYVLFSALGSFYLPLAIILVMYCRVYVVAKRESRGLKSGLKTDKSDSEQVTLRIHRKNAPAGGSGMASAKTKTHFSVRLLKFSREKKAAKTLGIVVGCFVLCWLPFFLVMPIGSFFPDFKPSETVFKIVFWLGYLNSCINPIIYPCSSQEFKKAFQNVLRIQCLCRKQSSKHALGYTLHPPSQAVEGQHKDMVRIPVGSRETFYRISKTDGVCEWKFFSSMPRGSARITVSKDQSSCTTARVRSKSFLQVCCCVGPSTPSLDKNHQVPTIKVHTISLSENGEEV
The format is functional, cell-based.

The target in assay [2] is Prostaglandin G/H synthase 1 (Homo sapiens, UniProt P23219). The format is functional.
Prostaglandin G/H synthase 1, sequence (P23219 whole entry): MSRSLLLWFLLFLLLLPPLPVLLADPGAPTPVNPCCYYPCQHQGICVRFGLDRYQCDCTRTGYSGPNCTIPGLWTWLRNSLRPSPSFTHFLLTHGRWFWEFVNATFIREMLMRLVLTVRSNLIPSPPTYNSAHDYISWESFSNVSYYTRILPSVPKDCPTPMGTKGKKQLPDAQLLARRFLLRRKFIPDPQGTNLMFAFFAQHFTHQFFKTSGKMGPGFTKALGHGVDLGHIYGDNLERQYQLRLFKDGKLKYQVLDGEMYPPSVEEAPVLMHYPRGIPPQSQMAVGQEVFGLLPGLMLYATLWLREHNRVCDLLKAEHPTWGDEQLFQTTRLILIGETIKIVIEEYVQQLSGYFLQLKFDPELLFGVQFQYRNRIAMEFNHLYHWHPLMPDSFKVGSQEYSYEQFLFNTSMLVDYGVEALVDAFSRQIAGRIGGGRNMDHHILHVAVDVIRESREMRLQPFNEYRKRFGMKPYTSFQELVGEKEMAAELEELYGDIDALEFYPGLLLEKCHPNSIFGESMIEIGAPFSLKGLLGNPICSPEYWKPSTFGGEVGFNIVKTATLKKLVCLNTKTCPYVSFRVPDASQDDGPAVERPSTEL
The target in the next assay is T2, Progesterone receptor (Homo sapiens, UniProt P06401).
T2 sequence (P06401 whole entry): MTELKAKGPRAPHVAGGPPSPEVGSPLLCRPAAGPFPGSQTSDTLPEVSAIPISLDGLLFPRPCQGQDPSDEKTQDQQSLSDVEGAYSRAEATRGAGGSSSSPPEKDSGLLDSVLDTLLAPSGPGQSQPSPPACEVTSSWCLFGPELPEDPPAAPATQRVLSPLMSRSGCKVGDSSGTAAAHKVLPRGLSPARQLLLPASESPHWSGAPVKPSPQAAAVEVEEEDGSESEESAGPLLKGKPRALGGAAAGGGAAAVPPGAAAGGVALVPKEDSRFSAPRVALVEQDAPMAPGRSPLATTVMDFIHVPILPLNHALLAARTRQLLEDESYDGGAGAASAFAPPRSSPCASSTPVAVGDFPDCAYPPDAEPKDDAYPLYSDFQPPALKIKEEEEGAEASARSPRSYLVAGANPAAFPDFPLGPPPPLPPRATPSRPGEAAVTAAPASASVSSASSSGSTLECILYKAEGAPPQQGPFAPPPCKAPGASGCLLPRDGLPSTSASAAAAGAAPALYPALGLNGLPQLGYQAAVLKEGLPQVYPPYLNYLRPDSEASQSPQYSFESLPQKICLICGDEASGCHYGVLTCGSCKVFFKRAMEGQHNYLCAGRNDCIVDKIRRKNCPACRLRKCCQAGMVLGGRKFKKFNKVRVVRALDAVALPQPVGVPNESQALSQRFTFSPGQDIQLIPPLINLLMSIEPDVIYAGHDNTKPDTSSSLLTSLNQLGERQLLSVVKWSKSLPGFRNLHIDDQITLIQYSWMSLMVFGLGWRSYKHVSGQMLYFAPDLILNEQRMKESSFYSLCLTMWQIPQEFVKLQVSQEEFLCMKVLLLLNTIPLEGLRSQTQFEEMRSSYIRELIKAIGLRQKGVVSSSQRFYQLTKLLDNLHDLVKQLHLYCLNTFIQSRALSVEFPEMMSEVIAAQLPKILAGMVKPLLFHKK
Further: assay procedure not described here.

As a reminder, the AC50 is the midpoint of the concentration-response curve, whichever way the signal moves. A lower AC50 goes with activity at low concentration. For the compound `Cc1ncc2c(c1O)COC2c1ccc(Cl)cc1` (configuration not stated) [CICLETANINE], the AC50 (in assay [1]; in assay [2]; on Progesterone receptor) was > 30 µM throughout.

With `c1ccc2c(SC3=NCCN3)c[nH]c2c1` [TINAZOLINE], the AC50 in assay [1] is 0.003 µM; in assay [2] it was > 30 µM; at Progesterone receptor it was 24 µM.

`CC(=O)[C@]1(N)Cc2c(O)c3c(c(O)c2[C@@H](O[C@H]2C[C@H](O)[C@H](O)CO2)C1)C(=O)c1ccccc1C3=O` [AMRUBICIN]: the figures for the AC50 (in assay [1]; in assay [2]; at Progesterone receptor) were 20.1 µM, 2.81 µM and > 30 µM, respectively.

Regarding `CC(COc1ccccc1)NC(C)C(O)c1ccc(O)cc1` (configuration not stated) [ISOXSUPRINE], the half-maximal activity concentration (AC50) (in assay [1]; in assay [2]; at Progesterone receptor) was > 30 µM in each case.

Take `Clc1ccc(C(Cn2ccnc2)OCc2csc3c(Cl)cccc23)c(Cl)c1` (configuration not stated) [SERTACONAZOLE]: the figures for the AC50 (in assay [1]; in assay [2]; at Progesterone receptor) were 24.3 µM, 5.34 µM and 0.831 µM, respectively.

In the case of `Cc1ccc(S(=O)(=O)NC(=O)NC2CCCCC2)cc1` [GLYCYCLAMIDE], the AC50 (in assay [1]; in assay [2]; on Progesterone receptor) was > 30 µM each time.

Consider `N[C@@H](Cc1ccccc1)C(=O)O` [PHENYLALANINE], for which the AC50 (in assay [1]; in assay [2]; at Progesterone receptor) was > 30 µM each time.

Regarding `O=C(CCC/C=C\C[C@@H]1[C@@H](CC[C@@H](O)CCc2ccccc2)[C@H](O)C[C@@H]1O)OCCCCO[N+](=O)[O-]` [LATANOPROSTENE BUNOD], the concentration at half-maximal activity (AC50) in assay [1] was > 30 µM; in assay [2], 13.5 µM; on Progesterone receptor, > 30 µM.

Turning to `COC(=O)C[C@](O)(CCCC(C)(C)O)C(=O)O[C@@H]1C(OC)=C[C@]23CCCN2CCc2cc4c(cc2[C@H]13)OCO4` [OMACETAXINE MEPESUCCINATE], the AC50 (in assay [1]; in assay [2]; on Progesterone receptor) was > 30 µM in each case.

For the compound `NC(=O)[C@@H]1CC[C@@H]2CN1C(=O)N2OS(=O)(=O)O` [AVIBACTAM], the AC50 (in assay [1]; in assay [2]; on Progesterone receptor) was > 30 µM each time.

With `Cc1cn([C@H]2O[C@@H](CO)[C@H](O)[C@H]2F)c(=O)[nH]c1=O` [CLEVUDINE], the AC50 (in assay [1]; in assay [2]; at Progesterone receptor) was > 30 µM in each case.

For the compound `Cc1oc(=O)oc1COC(=O)[C@@H]1N2C(=O)[C@@H](NC(=O)[C@H](N)c3ccccc3)[C@H]2SC1(C)C` [LENAMPICILLIN], the AC50 (in assay [1]; in assay [2]; on Progesterone receptor) was > 30 µM in each case.

Turning to `CC(C)(C)NC(=O)N[C@H](C(=O)N1C[C@H]2[C@@H]([C@H]1C(=O)NC(CC1CCC1)C(=O)C(N)=O)C2(C)C)C(C)(C)C` (some centres not stated) [BOCEPREVIR], the AC50 (in assay [1]; in assay [2]; on Progesterone receptor) was > 30 µM in each case.

`CCCSc1nc(N[C@@H]2C[C@H]2c2ccc(F)c(F)c2)c2nnn([C@@H]3C[C@H](OCCO)[C@@H](O)[C@H]3O)c2n1` [TICAGRELOR]: the AC50 in assay [1] was > 30 µM; in assay [2], 26.2 µM; on Progesterone receptor, 7.6 µM.

As for `CC[N+](C)(CC)CCOC(=O)C(O)(c1ccccc1)C1CCCCC1` (configuration not stated) [OXYPHENONIUM], the AC50 (in assay [1]; in assay [2]; on Progesterone receptor) was > 30 µM throughout.

In the case of `NNCCc1ccccc1` [PHENELZINE], the AC50 is 11.5 µM in assay [1], 0.5 µM in assay [2] and > 30 µM at Progesterone receptor.

On to `O=C(O)[C@@H]1C[C@@H](O)CN1`, for which the AC50 (in assay [1]; in assay [2]; at Progesterone receptor) was > 30 µM in each case.

`CC(=O)O[C@H]1Cc2ccccc2N(C(N)=O)c2ccccc21` [ESLICARBAZEPINE ACETATE]: the AC50 (in assay [1]; in assay [2]; on Progesterone receptor) was > 30 µM each time.

As for `COc1cc(C)c2c(Oc3cccc(C(F)(F)F)c3)c(OC)cc(NC(C)CCCN)c2n1` (configuration not stated) [TAFENOQUINE], the AC50 in assay [1] is > 3 µM; in assay [2] it was 3.81 µM; on Progesterone receptor, 4.23 µM.
